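Five compound concentrations were applied to cells in 96-well plates for 48 hours; endpoints were derived by simple linear interpolation of the resulting dose-response curve. Here, GI50 denotes the concentration required for 50% inhibition of growth. TGI: total growth inhibition.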
Legend:
Assay in all cases: growth of human tumour cells (NCI), 48 h
HCT-15 colon = system: HCT-15 colon
HOP-62 NSCLC = system: HOP-62 NSCLC
OVCAR-4 ovarian = system: OVCAR-4 ovarian
NCI-H522 lung = system: NCI-H522 lung
TK-10 renal = system: TK-10 renal
HL-60(TB) leukemia = system: HL-60(TB) leukemia
U251 CNS = system: U251 CNS
HCT-116 colon = system: HCT-116 colon
HCC-2998 colon = system: HCC-2998 colon
PC-3 prostate = system: PC-3 prostate
MDA-MB-435 = system: MDA-MB-435
COLO 205 colon = system: COLO 205 colon
MOLT-4 leukemia = system: MOLT-4 leukemia
RPMI-8226 leukemia = system: RPMI-8226 leukemia
IGROV1 ovarian = system: IGROV1 ovarian
T-47D breast = system: T-47D breast
MDA-MB-231 breast = system: MDA-MB-231 breast
BT-549 breast = system: BT-549 breast
DU-145 prostate = system: DU-145 prostate
SK-MEL-5 melanoma = system: SK-MEL-5 melanoma
SK-OV-3 ovarian = system: SK-OV-3 ovarian
786-0 renal = system: 786-0 renal
SF-539 CNS = system: SF-539 CNS
A498 renal = system: A498 renal
NCI-H460 lung = system: NCI-H460 lung
MALME-3M melanoma = system: MALME-3M melanoma
UACC-257 melanoma = system: UACC-257 melanoma
K-562 leukemia = system: K-562 leukemia
OVCAR-8 ovarian = system: OVCAR-8 ovarian
ACHN renal = system: ACHN renal
KM12 colon = system: KM12 colon
SK-MEL-28 melanoma = system: SK-MEL-28 melanoma
SW-620 colon = system: SW-620 colon
EKVX NSCLC = system: EKVX NSCLC
M14 melanoma = system: M14 melanoma
SK-MEL-2 melanoma = system: SK-MEL-2 melanoma
NCI-H23 lung = system: NCI-H23 lung
OVCAR-5 ovarian = system: OVCAR-5 ovarian
SF-295 CNS = system: SF-295 CNS
HS 578T breast = system: HS 578T breast
MCF7 breast = system: MCF7 breast
SN12C renal = system: SN12C renal
UACC-62 melanoma = system: UACC-62 melanoma
CAKI-1 renal = system: CAKI-1 renal
SF-268 CNS = system: SF-268 CNS
LOX IMVI melanoma = system: LOX IMVI melanoma
A549 NSCLC = system: A549 NSCLC
NCI-H226 lung = system: NCI-H226 lung
CCRF-CEM leukemia = system: CCRF-CEM leukemia
HOP-92 NSCLC = system: HOP-92 NSCLC
UO-31 renal = system: UO-31 renal
RXF 393 renal = system: RXF 393 renal
SNB-75 CNS = system: SNB-75 CNS
OVCAR-3 ovarian = system: OVCAR-3 ovarian
NCI/ADR-RES ovarian = system: NCI/ADR-RES ovarian
SR leukemia = system: SR leukemia
SNB-19 CNS = system: SNB-19 CNS
HT29 colon = system: HT29 colon
MDA-N = system: MDA-N

CCOC(=O)c1ccccc1-c1c2ccc(=[N+](C)C)cc-2oc2cc(N(C)C)ccc12
GI50 (HCT-15 colon): 2.96 µM
TGI (HCT-15 colon): > 37.2 µM
GI50 (HOP-62 NSCLC): 0.352 µM
TGI (HOP-62 NSCLC): 10.3 µM
GI50 (OVCAR-4 ovarian): 0.167 µM
TGI (OVCAR-4 ovarian): > 41.5 µM
GI50 (NCI-H522 lung): 0.306 µM
TGI (NCI-H522 lung): 16.4 µM
GI50 (TK-10 renal): 1.06 µM
TGI (TK-10 renal): 25.2 µM
GI50 (HL-60(TB) leukemia): 0.229 µM
TGI (HL-60(TB) leukemia): 1.08 µM
GI50 (U251 CNS): 0.128 µM
TGI (U251 CNS): > 35.7 µM
GI50 (HCT-116 colon): 0.257 µM
TGI (HCT-116 colon): 13.1 µM
GI50 (HCC-2998 colon): 0.35 µM
TGI (HCC-2998 colon): 13.9 µM
GI50 (PC-3 prostate): 0.0778 µM
TGI (PC-3 prostate): 12.8 µM
GI50 (MDA-MB-435): 0.255 µM
TGI (MDA-MB-435): 5.71 µM
GI50 (COLO 205 colon): 0.143 µM
TGI (COLO 205 colon): 0.43 µM
GI50 (MOLT-4 leukemia): 0.488 µM
TGI (MOLT-4 leukemia): 35.7 µM
GI50 (RPMI-8226 leukemia): 0.082 µM
TGI (RPMI-8226 leukemia): 4.96 µM
GI50 (IGROV1 ovarian): 0.332 µM
TGI (IGROV1 ovarian): 16.1 µM
GI50 (T-47D breast): 0.104 µM
TGI (T-47D breast): 19.8 µM
GI50 (MDA-MB-231 breast): 0.301 µM
TGI (MDA-MB-231 breast): 10.7 µM
GI50 (BT-549 breast): 0.178 µM
TGI (BT-549 breast): 2.77 µM
GI50 (DU-145 prostate): 0.174 µM
TGI (DU-145 prostate): 24.1 µM
GI50 (SK-MEL-5 melanoma): 0.205 µM
TGI (SK-MEL-5 melanoma): 0.632 µM
GI50 (SK-OV-3 ovarian): 0.306 µM
TGI (SK-OV-3 ovarian): 1.74 µM
GI50 (786-0 renal): 0.94 µM
TGI (786-0 renal): > 36.5 µM
GI50 (SF-539 CNS): 0.379 µM
TGI (SF-539 CNS): 5.33 µM
GI50 (A498 renal): 0.013 µM
TGI (A498 renal): 1.11 µM
GI50 (NCI-H460 lung): 0.23 µM
TGI (NCI-H460 lung): 4.42 µM
GI50 (MALME-3M melanoma): 0.333 µM
TGI (MALME-3M melanoma): 7.62 µM
GI50 (UACC-257 melanoma): 0.198 µM
TGI (UACC-257 melanoma): 7.58 µM
GI50 (K-562 leukemia): 0.145 µM
TGI (K-562 leukemia): > 35.1 µM
GI50 (OVCAR-8 ovarian): 0.195 µM
TGI (OVCAR-8 ovarian): > 22.8 µM
GI50 (ACHN renal): 1.28 µM
TGI (ACHN renal): 8.1 µM
GI50 (KM12 colon): 0.196 µM
TGI (KM12 colon): 10.9 µM
GI50 (SK-MEL-28 melanoma): 0.687 µM
TGI (SK-MEL-28 melanoma): 13 µM
GI50 (SW-620 colon): 0.261 µM
TGI (SW-620 colon): 17.4 µM
GI50 (EKVX NSCLC): 0.129 µM
TGI (EKVX NSCLC): > 38.9 µM
GI50 (M14 melanoma): 0.448 µM
TGI (M14 melanoma): 10.9 µM
GI50 (SK-MEL-2 melanoma): 0.579 µM
TGI (SK-MEL-2 melanoma): 4.1 µM
GI50 (NCI-H23 lung): 0.231 µM
TGI (NCI-H23 lung): 11.9 µM
GI50 (OVCAR-5 ovarian): 0.537 µM
TGI (OVCAR-5 ovarian): > 39.6 µM
GI50 (SF-295 CNS): 0.278 µM
TGI (SF-295 CNS): 1.62 µM
GI50 (HS 578T breast): 0.548 µM
TGI (HS 578T breast): 51.2 µM
GI50 (MCF7 breast): 0.101 µM
TGI (MCF7 breast): 19.4 µM
GI50 (SN12C renal): 0.171 µM
TGI (SN12C renal): 4.31 µM
GI50 (UACC-62 melanoma): 0.332 µM
TGI (UACC-62 melanoma): 4.12 µM
GI50 (CAKI-1 renal): 0.691 µM
TGI (CAKI-1 renal): 4.64 µM
GI50 (SF-268 CNS): 0.332 µM
TGI (SF-268 CNS): 27.5 µM
GI50 (LOX IMVI melanoma): 0.388 µM
TGI (LOX IMVI melanoma): 4.41 µM
GI50 (A549 NSCLC): 0.256 µM
TGI (A549 NSCLC): > 38.7 µM
GI50 (NCI-H226 lung): 0.758 µM
TGI (NCI-H226 lung): 10.2 µM
GI50 (CCRF-CEM leukemia): 0.42 µM
TGI (CCRF-CEM leukemia): > 45.9 µM
GI50 (HOP-92 NSCLC): 0.619 µM
TGI (HOP-92 NSCLC): 3.96 µM
GI50 (UO-31 renal): 2.18 µM
TGI (UO-31 renal): 8.1 µM
GI50 (RXF 393 renal): 0.692 µM
TGI (RXF 393 renal): 7.58 µM
GI50 (SNB-75 CNS): 0.196 µM
TGI (SNB-75 CNS): 11 µM
GI50 (OVCAR-3 ovarian): 0.209 µM
TGI (OVCAR-3 ovarian): 13.4 µM
GI50 (NCI/ADR-RES ovarian): 27.2 µM
TGI (NCI/ADR-RES ovarian): > 100 µM
GI50 (SR leukemia): 0.298 µM
TGI (SR leukemia): 27.4 µM
GI50 (SNB-19 CNS): 0.103 µM
TGI (SNB-19 CNS): 16.7 µM
GI50 (HT29 colon): 0.211 µM

CCN1CCNc2c3cc(OC)ccc3nc3c([N+](=O)[O-])ccc1c23
TGI (HCT-15 colon): 4.29 µM
TGI (HOP-62 NSCLC): 3.83 µM
TGI (OVCAR-4 ovarian): 4.33 µM
TGI (TK-10 renal): > 10 µM
TGI (HL-60(TB) leukemia): 2.37 µM
TGI (HCC-2998 colon): 2.14 µM
TGI (MDA-MB-435): 2.2 µM
TGI (COLO 205 colon): 5.39 µM
TGI (MOLT-4 leukemia): 1.34 µM
TGI (RPMI-8226 leukemia): 3.25 µM
TGI (IGROV1 ovarian): > 10 µM
TGI (T-47D breast): > 10 µM
TGI (MDA-MB-231 breast): 4.56 µM
TGI (DU-145 prostate): > 10 µM
TGI (SK-MEL-5 melanoma): 2.53 µM
TGI (SK-OV-3 ovarian): > 10 µM
TGI (786-0 renal): 9.61 µM
TGI (MALME-3M melanoma): 2.29 µM
TGI (UACC-257 melanoma): 3.7 µM
TGI (K-562 leukemia): > 10 µM
TGI (OVCAR-8 ovarian): > 10 µM
TGI (KM12 colon): 3.42 µM
TGI (SK-MEL-28 melanoma): 5.93 µM
TGI (MDA-N): 2.1 µM
TGI (SW-620 colon): > 10 µM
TGI (EKVX NSCLC): 6.13 µM
TGI (NCI-H23 lung): 5.46 µM
TGI (SF-295 CNS): 5.55 µM
TGI (MCF7 breast): 6.51 µM
TGI (SN12C renal): 5.74 µM
TGI (UACC-62 melanoma): 4.58 µM
TGI (CAKI-1 renal): > 10 µM
TGI (SF-268 CNS): > 10 µM
TGI (A549 NSCLC): > 10 µM
TGI (CCRF-CEM leukemia): 3.22 µM
TGI (HOP-92 NSCLC): 4.57 µM
TGI (RXF 393 renal): 2.01 µM
TGI (SNB-75 CNS): 4.38 µM
TGI (SR leukemia): 1.16 µM
TGI (HT29 colon): > 10 µM
